Reference: US20220062233A1 (The Board of Trustees of the Leland Stanford Junior …, priority 2018, published 2022)

How the values were obtained:
M2-8 cells = test: M2-8 Cell viability Assay; assay type: cell-based; settings: at the concentration of 1000 nM
wild-type HTT = test: Wild-type HTT assay in lymphoblastoid cells (LBC), Western blot; assay type: cell-based, human; settings: 3 days compound treatment, read-out: LBC IC20 (nM) wtHTT
Protocol: (§1) B. Mutant and Wild-Type HTT Assay in Lymphoblastoid Cells (LBC)
(§2) a. Cell Culturing and Compound Treatment
(§3) Lymphoblastoid cells derived from a Huntington's disease patient with 250 CAG repeats in the mutant HTT allele (GM14044 from Coriell Institute) were cultured in RPMI 1640 (Corning Cellgro, 10-040-CV) containing fetal bovine serum (Atlanta Biologicals, S11150). 4×10^5 cells were seeded on a 24-well plate and incubated with testing compound for 3 days. The cell suspension was then transferred to a 1.5 ml Eppendorf tube. Cells were collected by centrifugation and washed once with PBS. After all liquid was removed, the cell pellet was placed at −80° C. for at least 10 minutes. Lysis buffer [30 mM Tris-HCl (pH 8.0), 5 mM NaCl, 0.1% Triton X-100] with the proteinase inhibitor cocktail (P8340 from Sigma-Aldrich) was then added to the cells. Following centrifugation (14 k rpm for 15 min at 4° C.), the supernatant was collected. The protein concentrations were determined by BCA assay (Pierce, ThermoFisher).
(§4) Equal amounts of protein were loaded onto 4-12% gel (Invitrogen, WG1403A). After electrophoresis, the gels were transferred to nitrocellulose membranes by wet transfer at 72V for 3 hrs. […] The protein levels of mutant HTT, wild-type HTT, TBP, and tubulin were determined by immunoblotting with anti-polyQ specific antibody (clone MW1), anti-Huntingtin antibody (Abcam, ab45169), anti-TBP antibody (Sigma, T1827) and anti-alpha tubulin antibody (Sigma, T9026). Blots were imaged on a Li-Cor Odyssey infrared imager. The band intensities were determined by Li-Cor Odyssey software.

[1] = system: Lymphoblastoid cells (GM14044); test: LBC cell viability (Cell Titer-Glo); assay type: cell-based, human; settings: at the concentration of IC20, 3-day compound treatment
Protocol: Cell viability was determined by Cell Titer-Glo reagent (Promega, PRG9243). After 3-day compound treatment, 15 μl of cell suspension was taken out from plate and incubated with 10 μl of CTG reagent. The values of reaction mixture were detected by Tecan.

mutant HTT [2] = test: Mutant HTT assay in induced pluripotent stem cells (iPSC); assay type: cell-based, human; settings: HD patient iPSCs, one day incubation, read-out: iPSC IC20 (nM) mHTT
Protocol: C. Mutant HTT Assay in Induced Pluripotent Stem Cells (iPSC) a. Cell Culturing and Compound Treatment
Huntington's disease patient iPSCs (ND50036 from NINDS) were detached into single cells by Accutase (25058CI from Corning), counted and plated on a 24-well plate coated with Matrigel (354277 from Corning) at density of 7,000 cells/well. After 48 hrs, compounds were added to the cell culture medium mTeSR1 (85850 from StemCell Technologies) and the cells were incubated for one day. The medium was then removed, and the cells were washed with PBS. After all liquid was removed, the plate was placed at −80° C. overnight. Lysis buffer [30 mM Tris-HCl (pH 8.0), 5 mM NaCl, 0.1% Triton X-100] with the complete proteinase inhibitor cocktail (5892791001 from Sigma-Aldrich) was then added to the cells. Cell samples were lysed on an orbital plate shaker at 4° C. at 700 rpm for 30 min. The supernatants from spinning (14 k rpm for 10 min) were collected. The protein concentrations were determined by BCA assay (23225 from Pierce, ThermoFisher). […]
b. Detection of Mutant HTT Protein
Equal amounts of protein lysate collected from each sample were added to a 96-well plate that had been coated with a human HTT specific monoclonal antibody. After washing away any unbound substances, a biotinylated anti-human mutant HTT specific detection antibody was added. Streptavidin-horseradish peroxidase was subsequently added, followed by TMB Substrate Solution, which yielded a blue product that turns yellow when the Stop Solution was added. The intensity of the color measured was in proportion to the amount of mutant HTT bound in the initial step. The mutant HTT values are then interpolated from a standard curve.

[3] = target: T1, interaction between Supt4h and NGN (subunit of Supt5h) (Homo sapiens, UniProt O00267+P63272); test: Split Gaussia luciferase complementation assay (M2-8 Luciferase); assay type: cell-based; settings: M2-8 cells
T1 construct: expressed in transfected cells
Protocol: A. Split Gaussia Luciferase Complementation Assay […]
i: pNBR-X1-Supt4-Gluc1 and pNEBR-X1-NGN-Gluc2
The HA-Supt4h and Flag-NGN fragments are amplified by PCR using the plasmid pHA-Supt4h-YC and pFlag-NGN-YN and sub-cloned individually into pcDNA3.1-Gluc1 and pcDNA3.1-Gluc2 (described in “A highly sensitive protein-protein interaction assay based on Gaussia luciferase” published at Nat Methods. 2006 December; 3(12):977-9. Epub 2006 Nov. 12). Then HA-Supt4h-Gluc1 and Flag-NGN-Gluc2 are amplified by PCR and inserted to pNEBR-X1-Hygro (New England BioLabs), which contain RheoSwitch responsive element under the control of RheoSwitch ligand. […]
ii: pNEBR-X1-Supt4h-G1-NGN-G2
PCR products containing the sequence from 5XRE to polyA in pNEBR-X1-NGN-G2 are inserted to pNEBR-X1-Supt4h-G1 at Pcil site to generate Supt4h-G1 and NGN-G2 bidirectional under their own RheoSwitch responsive element and polyA in the same plasmid. […]
b. Stable Cloned Cell Line i: 293-R1 is a cloned cell line which is engineered to constitutively express RSL1 receptor/activator by transfecting HEK 293 cells with pNEBR-R1 plasmid (New England BioLabs) and selected with blasticidin. […]
ii: M2-8 is a cloned 293-R1 cell which can inducibly express pNEBR-X1-Supt4h-G1-NGN-G2 by addition of RSL1. Two point mutations ([…] and M110I) are introduced to the GL1 and GL2 for better stability according to “A high-throughput cell-based Gaussia luciferase reporter assay for identifying modulators of fibulin-3 secretion” published in J Biomol Screen. 2013 July; 18(6):647-58. The cell line is selected by hygromycin. […]
c. Cell Culture and Transfection Condition
All the HEK-293 cells and derivative clones are maintained in DMEM containing 10% FBS plus corresponding antibiotics (250 μg/ml hygromycin B, 10 μg/ml blasticidin or both) at 37° C., 5% CO2. All the transfections are done by using Lipofectamine 2000 (Invitrogen) according to the manufacturer's instructions. […]
d. Bioluminescence Assay from Cell Lysates
Plasmids harboring the Gluc1 and Gluc2 are co-transfected in a 1:1 ratio into 293-R1 cells plated on tissue culture treated 24-well plates using Lipofectamine 2000 according to the manufacturer's instructions. For stable M2-8 cells, the cells are directly plated into 96-well or 384-well white plates. Twenty-four hours later, RheoSwitch ligand with or without test compound is added to the cells for induction/drug treatment. After 24 hr, the cells are washed with PBS and the plate was stored at −20° C. overnight. Lysis buffer [30 mM Tris-HCl (pH 8.0) 5 mM NaCl, 0.1% Triton X-100] with 10 μg/ml native coelenterazine (Nanolight Technology) is then added to the cells at room temperature for one hour in the dark. After shaking for about 1 min, 40 μl of cell lysate are transferred to a white 96-well plate. For M2-8 in white micro plate, no transfer is needed. Signal intensities (integrated 100 ms) were read on Tecan Infinite M200 or M1000.
The split Gaussia luciferase complementation assay measures the interaction between Sup4h and NGN. NGN is the subunit of Supt5h that binds to Supt4h.

mutant HTT [4] = test: Mutant HTT assay in lymphoblastoid cells (LBC), Western blot; assay type: cell-based, human; settings: read-out: LBC IC20 (nM) mHTT, 3 days compound treatment
Protocol: as §1, §2, §3, §4

[5] = system: Huntington's disease patient iPSCs (ND50036); test: iPSC viability at IC20; assay type: cell-based, human; settings: at the concentration of IC20

| Structure (SMILES) | M2-8 Cell viability (M2-8 cells) | IC20 (wild-type HTT) | LBC viability at IC20 [1] | IC20 (mutant HTT [2]; class symbols) | IC50 [3] | IC20 (mutant HTT [4]) | iPSC viability at IC20 [5] | IC20 (mutant HTT [2]; numeric bounds) |
| --- | --- | --- | --- | --- | --- | --- | --- | --- |
| C[C@@H](N[C@@H]1CCCc2c1[nH]c1ccc(Br)cc21)c1ccccc1 (single isomer, unassigned) [Compound 13] | + (cell viability is greater than 50% at the concentration of 1000 nM) | > 1000 nM | * (cell viability is greater than 60% at the concentration of IC20) | < 100 nM | ≤ 100 nM | 101 to 300 nM | + (cell viability is greater than 75% at the concentration of IC20) | – |
| CC(C)(O)c1cccc(CN[C@@H]2CCCc3c2[nH]c2ccc(Br)cc32)c1 (single isomer, unassigned) [Compound 58] | + (cell viability is greater than 50% at the concentration of 1000 nM) | > 1000 nM | * (cell viability is greater than 60% at the concentration of IC20) | – | 101 to 300 nM | 101 to 300 nM | – | > 100 nM |
| COC(=O)c1cccc(CN[C@@H]2CCCc3c2[nH]c2ccc(Br)cc32)c1 (single isomer, unassigned) [Compound 59] | + (cell viability is greater than 50% at the concentration of 1000 nM) | > 1000 nM | * (cell viability is greater than 60% at the concentration of IC20) | – | 101 to 300 nM | 101 to 300 nM | – | > 100 nM |
| C#Cc1ccc2[nH]c3c(c2c1)CCC[C@H]3NCc1ccccc1 [Compound 5, (R)—N-benzyl-6-ethynyl-2,3,4,9-tetrahydro-1H-carbazol-1-amine] | + (cell viability is greater than 50% at the concentration of 1000 nM) | > 1000 nM | * (cell viability is greater than 60% at the concentration of IC20) | – | ≤ 100 nM | < 100 nM | – | > 100 nM |
| Brc1ccc2[nH]c3c(c2c1)CCC[C@H]3NCc1cccnc1 [Compound 32, (R)-6-bromo-N-(pyridin-3-ylmethyl)-2,3,4,9-tetrahydro-1H-carbazol-1-amine] | + (cell viability is greater than 50% at the concentration of 1000 nM) | > 1000 nM | * (cell viability is greater than 60% at the concentration of IC20) | – | 101 to 300 nM | < 100 nM | – | > 100 nM |
| Brc1ccc2[nH]c3c(c2c1)CCC[C@H]3NCc1ccccn1 [Compound 33, (R)-6-bromo-N-(pyridin-2-ylmethyl)-2,3,4,9-tetrahydro-1H-carbazol-1-amine] | + (cell viability is greater than 50% at the concentration of 1000 nM) | > 1000 nM | * (cell viability is greater than 60% at the concentration of IC20) | – | 101 to 300 nM | 301 to 1000 nM | – | > 100 nM |
| Brc1ccc2[nH]c3c(c2c1)CCC[C@H]3NCc1cccc(I)c1 [Compound 41, (R)-6-bromo-N-(3-iodobenzyl)-2,3,4,9-tetrahydro-1H-carbazol-1-amine] | + (cell viability is greater than 50% at the concentration of 1000 nM) | > 1000 nM | * (cell viability is greater than 60% at the concentration of IC20) | – | ≤ 100 nM | 101 to 300 nM | – | > 100 nM |
| C=C(C)c1ccc(CN[C@@H]2CCCc3c2[nH]c2ccc(Br)cc32)s1 [Compound 68] | + (cell viability is greater than 50% at the concentration of 1000 nM) | > 1000 nM | * (cell viability is greater than 60% at the concentration of IC20) | – | ≤ 100 nM | 101 to 300 nM | – | > 100 nM |
| Brc1ccc2[nH]c3c(c2n1)CCC[C@H]3NCc1ccccc1 [Compound 69] | + (cell viability is greater than 50% at the concentration of 1000 nM) | – | – | < 100 nM | ≤ 100 nM | – | + (cell viability is greater than 75% at the concentration of IC20) | – |
| OC1(c2ccc(CN[C@@H]3CCCc4c3[nH]c3ccc(Br)nc43)s2)CC1 [Compound 70] | + (cell viability is greater than 50% at the concentration of 1000 nM) | – | – | < 100 nM | ≤ 100 nM | – | + (cell viability is greater than 75% at the concentration of IC20) | – |
| OC1(c2ccc(CN[C@@H]3CCCc4c3[nH]c3ccc(Br)nc43)cc2)CC1 [Compound 71] | + (cell viability is greater than 50% at the concentration of 1000 nM) | – | – | < 100 nM | ≤ 100 nM | – | + (cell viability is greater than 75% at the concentration of IC20) | – |
